From US20210380695A1, “STING AGONIST COMBINATION TREATMENTS WITH IMMUNE CHECKPOINT INHIBITORS” (ImmuneSensor Therapeutics, Inc., priority 2020, published 2021)
Like-named read-outs stand apart in the source and are kept apart here.

What was measured:
B16F10 melanoma cells [1] = conditions: intratumorally
Method: Groups of C57BL6/J mice (n=5) were implanted subcutaneously with B16F10 melanoma cells into the right flank on day 0. On day 6, 9, 12, and 15, mice were treated intratumorally with anti-CTLA4 antibody or DMXAA, or the combination of both anti-CTLA4 antibody and DMXAA. […] Data are shown as mean±SEM.
Female C57BL6 mice at the age of 7-8 weeks were implanted on day 0 with 10^6 of B16F10 melanoma cells (ATCC CRL-6475) subcutaneously on their right flanks. On day 6, tumors were measured and mice were regrouped so that each group (n=5) had similar average tumor volumes (˜120 mm^3). On day 6, 9, 12, 15, mice were treated intratumorally with 50 μg of anti-CTLA4 antibody (BioXcell, BE0614), or 50 μg of DMXAA (Sigma-Aldrich, D5817), or the combination of both the anti-CTLA4 antibody and DMXAA. Mock treated group were injected with PBS intratumorally. Tumor volumes were measured every 2-3 days and mouse survival was monitored daily.

STING pathway = assay: Plasma cytokine and chemokine levels after subcutaneous Compound A in cynomolgus monkeys; format: in vivo; conditions: for plasma levels of IL-6: 3 hours and 6 hours postdose; for plasma IFNα levels: male or female
Method: (§1) Male and female cynomolgus monkeys were assigned to groups and doses of Compound A were administered. Animals were dosed via subcutaneous injection at a volume of 2 mL/kg. The vehicle control article/diluent was phosphate-buffered saline (PBS).
(§2) IFNα, TNFα, and IL-6 levels were measured at 3, 6, and 12 hours post-dosing. Dose related but variable changes were observed. […] IL-6 increases at 3 mg/kg and 10 mg/kg persisted at 12 hours postdose. TNFα levels increased at 3 hours in the 1 mg/kg group. […] The cytokine responses are consistent with the predicted STING pathway activation. Morbidity was observed within 1 day of administration of the 10 mg/kg/dose; as such, 3 mg/kg was selected as the high dose for the following repeat-dose phase (Phase II).
(§3) In Phase II, 3 weekly administrations of 0.3 mg/kg of Compound A were tolerated. The 3 mg/kg dose in naïve animals was not tolerated and led to clinical observations of morbidity or death within 1 day of dosing. The findings were consistent with Compound A-mediated inflammatory response that was considered the probable cause of death.
(§4) A priming dose of 0.1 mg/kg/day was administered 4 days prior to the first dose of 1.0 mg/kg/day Compound A to potentially allow a tolerance to develop to avoid the acute mortality noted during Phase II following administration of 3.0 mg/kg/day of Compound A to naïve animals. […] Increased plasma levels of IL-6 were noted 3 hours and 6 hours postdose.

[2] = Subcutaneous dose escalation and repeat-dose tolerability study of Compound A in cynomolgus monkeys (priming and maintenance doses); format: in vivo
Method: as §1, §2, §3, §4
Edema is consistent with an inflammatory related pathology and the exaggerated pharmacology of the mode of action of Compound A. Administration of 3 weekly doses of 1.0 mg/kg/day (preceded by a priming dose of 0.1 mg/kg) or 0.6 mg/kg (without a priming dose) was tolerated. Animals tolerated an escalation to 3.0 mg/kg in Phase I, due to previous administrations at lower levels that allowed a tolerance to develop.

B16F10 melanoma cells [3] = assay: B16F10 melanoma tumor model in C57BL6 mice: Compound A with anti-CTLA4 and/or anti-PD-L1 antibody; format: in vivo
Method: FIG. 2, panels A and B show the effect of a triple combination of Compound A (I.T.), PD-L1 antibody (I.P.), and anti-CTLA4 antibody (I.P.). Groups of C57BL6 mice (n=5) bearing B16F10 tumors were treated as indicated on day 6, 10, and 14 after tumor implantation. […] Data are shown as mean±SEM.
In the same set of experiments, the combination of 0.3 μg of Compound A (I.T.) and 200 μg of anti-PD-L1 antibody (I.P.) was also tested with and without the combination of 200 μg of anti-CTLA4 antibody (I.P.).

[4] = Exposure (Cmax, AUC) of Compound A in cynomolgus monkeys; format: in vivo
Method: as §1, §3

[5] = alone, day 6, 9, 12, 15: 50 μg anti-CTLA4 antibody or 50 μg DMXAA
[6] = combination 50 μg anti-CTLA4 antibody and 50 μg DMXAA
[7] = Phase I dose escalation, subcutaneous injection
[8] = Phase II, 3 mg/kg dose in naïve animals
[9] = alone, I.T., day 6, 10, 14: 0.3 μg Compound A or 50 μg anti-CTLA4 antibody
[10] = combination 0.3 μg Compound A (I.T.) with 10 μg anti-CTLA4 antibody (I.T.)
[11] = combination 0.3 μg Compound A (I.T.) with 50 μg anti-CTLA4 antibody (I.T.)

## Cc1ccc2c(=O)c3cccc(CC(=O)O)c3oc2c1C [DMXAA]
B16F10 melanoma cells [1]; [5]
  mice survival: prolonged survival
  tumor growth: greatly suppressed tumor growth
B16F10 melanoma cells [1]; [6]
  controlling tumor growth compared to monotherapy: significant improved effect
  extending survival compared to monotherapy: significant improved effect

## Nc1nc2c(ncn2[C@@H]2O[C@@H]3COP(=O)(O)OC4C(O)[C@H](n5cnc6c(N)ncnc65)O[C@@H]4COP(=O)(O)OC2C3OCC(F)(F)F)c(=O)[nH]1 (stereo partly drawn) [Compound A]
STING pathway; Phase I, 1 mg/kg and 3 mg/kg groups, 3 hours and 6 hours post dosing
  IFNα levels: Moderate levels
STING pathway; Phase I, 1 mg/kg group, 3 hours
  TNFα levels: increased
STING pathway; Phase I, 3 mg/kg and 10 mg/kg groups
  TNFα levels: Lower levels
STING pathway; Phase I, 3 mg/kg and 10 mg/kg, 12 hours after dosing
  IFNα levels: decreased 12 hours after dosing, but did not return to pre-dose levels
STING pathway; Phase I, 3 mg/kg and 10 mg/kg, 12 hours postdose
  IL-6 increases: persisted
STING pathway; Phase I, 10 mg/kg group
  IFNα levels: Higher levels
STING pathway; Phase I, all groups, 3 and 6 hours post dosing
  plasma IL-6 levels: Increases
STING pathway; Phase II
  IL-12, G-CSF, and IFNγ levels: sporadic increases
  changes in pro-inflammatory cytokines and chemokines MCP-1 and IP-10: suggestive of an inflammatory response with resolution by 24 hours postdose
STING pathway; Phase II, 3 mg/kg dose level, 3 and 6 hours
  plasma IL-1ra, IL-6, and IFNα cytokine levels: dose-dependent increases
STING pathway; Phase III, 0.1 mg/kg/day
  plasma levels of IL-6: Increased
  plasma IFNα levels: did not cause significant increase
STING pathway; Phase III, 0.1 mg/kg/day, 3 hours post dosing, male and female
  IP-10: Slight elevation
STING pathway; Phase III, 0.1 mg/kg/day, 6 hours postdose in male, 3 and 6 hours postdose in female
  levels of TNFα: Elevated levels
STING pathway; Phase III, 0.1 mg/kg/day, 24 hours post dosing
  TNFα levels: returned to non-detectable level
STING pathway; Phase III, 0.1 mg/kg/day, 24 hours postdose
  IL-6 levels: returned to a non-detectable level
STING pathway; Phase III, 0.6 mg/kg/day
  plasma levels of IL-6: Increased
  plasma IFNα levels: did not cause significant increase
STING pathway; Phase III, 0.6 mg/kg/day, 6 hours postdose in male, 1.5, 3, and 6 hours postdose in female
  levels of TNFα: Elevated levels
STING pathway; Phase III, 0.6 mg/kg/day, throughout the time course
  IP-10: No significant elevation
STING pathway; Phase III, 1 mg/kg/day, 1.5, 3, and 6 hours postdose
  IP-10 level: no increased IP-10 level
STING pathway; Phase III, 1 mg/kg/day, 1.5, 3, and 6 hours postdose, male and female
  TNFα levels: Elevated
STING pathway; Phase III, 1 mg/kg/day, 1.5 and 3 hours postdose
  IFNα levels: did not cause significant change
STING pathway; Phase III, 1 mg/kg/day, 3 and 6 hours postdose, male and female
  IL-6 levels: Marked increase
STING pathway; Phase III, 1 mg/kg/day, 6 hours postdose, male and female
  IFNα levels: elevated levels
[2]; 3 weekly doses of 0.6 mg/kg without a priming dose
  tolerability: tolerated
[2]; 3 weekly doses of 1.0 mg/kg/day preceded by a priming dose of 0.1 mg/kg
  tolerability: tolerated
[2]; [7]
  dose level tolerated on escalation: up to 3.0 mg/kg/dose
  findings on escalation up to 3.0 mg/kg/dose: limited to increased body temperature and elevated IFNα, IL-6, and TNFα cytokine levels
[2]; Phase I, 10 mg/kg/dose
  time to morbidity after administration: ≤ 1 days
[2]; [8]
  time to morbidity or death after dosing: ≤ 1 days
  tolerability: not tolerated
[2]; Phase II, 3 weekly administrations of 0.3 mg/kg
  tolerability: tolerated
[2]; Phase III, three weekly doses of 0.6 or 1.0 mg/kg/day (1.0 preceded by priming dose of 0.1 mg/kg/day)
  survival: survived until scheduled sacrifice
[2]; animals administered 0.6 or 1.0 mg/kg/day
  compound-related findings: limited to a transient body temperature increase and mild to moderate clinical and anatomic pathology findings
[2]; naïve animals
  dose not tolerated (acute morbidity and/or death, pulmonary edema): ≥ 3.0 mg/kg
B16F10 melanoma cells [3]; [9]
  mouse survival: extended mouse survival
  tumor growth: reduced tumor growth
B16F10 melanoma cells [3]; [10]
  mouse survival compared to both agents alone: improved mouse survival
  tumor growth compared to both agents alone: further suppressed tumor growth
B16F10 melanoma cells [3]; [11]
  suppression of tumor growth compared to 0.3 μg Compound A (I.T.) with 200 μg anti-CTLA4 antibody (I.P.): more effective
  tumor remission: more dramatic tumor remission
B16F10 melanoma cells [3]; combination 0.3 μg Compound A (I.T.) with 200 μg anti-CTLA4 antibody (I.P.)
  reduction in tumor growth compared to 0.3 μg Compound A (I.T.) with 50 μg anti-CTLA4 antibody (I.T.): inferior
B16F10 melanoma cells [3]; combination 0.3 μg Compound A (I.T.) with 200 μg anti-PD-L1 antibody (I.P.)
  reduction in tumor growth compared to 0.3 μg Compound A (I.T.) with 50 μg anti-CTLA4 antibody (I.T.): inferior
B16F10 melanoma cells [3]; combination intratumoral Compound A with 10 μg anti-CTLA4 antibody (I.T.)
  anti-tumor effect compared to 200 μg anti-CTLA4 antibody administered systemically: similar
B16F10 melanoma cells [3]; combination intratumoral Compound A with 50 μg anti-CTLA4 antibody (I.T.)
  tumor size and overall survival compared to 200 μg anti-CTLA4 antibody administered systemically: significant benefits
B16F10 melanoma cells [3]; triple combination 0.3 μg Compound A (I.T.), 200 μg anti-PD-L1 antibody (I.P.), 200 μg anti-CTLA4 antibody (I.P.)
  effect on tumor growth compared to 0.3 μg Compound A (I.T.) with 50 μg anti-CTLA4 antibody (I.T.): comparable
[4]; 0.3 to 3 mg/kg/day, Day 1 of Phase II
  increase of exposure (mean Cmax, AUC0-2, AUC0-8, AUC0-24) with dose: generally dose-proportional
[4]; male vs female
  sex differences in mean Cmax, AUC0-2, AUC0-8, and AUC0-24 values: less than 2 fold
[4]; multiple doses of 0.3 mg/kg/day
  accumulation after multiple doses: No accumulation
